By IC50 is commonly meant the concentration at which inhibition is half-maximal.

Some results are limits rather than exact numbers.

Holding throughout (assay type): biochemical
One experiment concerns the target T1, Human MAGL (hMAGL) (Homo sapiens, UniProt Q99685).
T1 construct: hexahistidine; made in house; host or cells: E. coli
T1 sequence (Q99685 1-303): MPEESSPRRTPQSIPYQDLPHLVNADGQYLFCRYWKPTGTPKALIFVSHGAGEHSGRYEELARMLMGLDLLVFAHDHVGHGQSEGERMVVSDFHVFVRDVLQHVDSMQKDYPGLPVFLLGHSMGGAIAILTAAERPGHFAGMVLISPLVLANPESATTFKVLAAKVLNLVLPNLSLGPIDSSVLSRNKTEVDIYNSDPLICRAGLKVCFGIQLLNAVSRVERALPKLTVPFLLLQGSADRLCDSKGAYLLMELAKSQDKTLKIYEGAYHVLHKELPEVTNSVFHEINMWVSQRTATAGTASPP
The experiment can be described thus: Fluorescent assay protocol for hMAGL (AHMMCE substrate). As to conditions: recombinant human MAGL, AHMMCE substrate, 15 min preincubation; read-out: IC50 hMAGL. As for the experimental part: (§1) This medium throughput assay involved a 96-well plate format in which hMAGL activity was monitored by the hydrolysis of the substrate 7-hydroxy-6-methoxy-4-methylcoumarin ester (AHMMCE) to form the fluorescent product, coumarin. […] Upon the addition of AHMMCE, the reaction was incubated at 25° C. for 120 min; fluorescence readings were taken every 15 min at 360 nm/460 nm (λexcitation/λemission) using a Synergy HT Plate Reader (Bio-Tek, Winooski, Vt.). […] External standards were used to convert relative fluorescence units to the amount of 4-methylcoumarin formed. All MAGL assays were performed in triplicate for each inhibitor concentration, and IC50 values were calculated using Prizm software (GraphPad Software, Inc., San Diego, Calif.).

For another experiment, the target named is T2, ΔTM rat FAAH (Rattus norvegicus, UniProt P97612).
T2 construct: Preparation of Transmembrane Domain-Deleted Rat FAAH (ΔTM rFAAH); made in house; host or cells: E. coli
T2 sequence (P97612 30-579 limits assumed): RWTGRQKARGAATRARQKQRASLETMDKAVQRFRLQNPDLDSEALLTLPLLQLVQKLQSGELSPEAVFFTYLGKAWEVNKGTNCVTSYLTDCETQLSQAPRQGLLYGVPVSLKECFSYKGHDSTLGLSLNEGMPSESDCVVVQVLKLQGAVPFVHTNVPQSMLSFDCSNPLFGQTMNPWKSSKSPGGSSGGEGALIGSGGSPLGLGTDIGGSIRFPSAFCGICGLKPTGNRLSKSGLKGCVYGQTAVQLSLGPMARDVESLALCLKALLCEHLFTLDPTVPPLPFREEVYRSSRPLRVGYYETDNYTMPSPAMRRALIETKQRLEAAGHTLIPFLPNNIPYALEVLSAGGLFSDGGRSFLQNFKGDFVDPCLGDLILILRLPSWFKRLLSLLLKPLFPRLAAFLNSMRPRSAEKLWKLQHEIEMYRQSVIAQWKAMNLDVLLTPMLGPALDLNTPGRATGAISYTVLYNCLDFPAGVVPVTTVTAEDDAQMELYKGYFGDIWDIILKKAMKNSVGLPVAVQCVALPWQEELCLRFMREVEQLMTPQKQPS
The experiment can be described thus: Fluorescent assay protocol for ΔTM rat FAAH (AAMCA substrate). As to conditions: 15 min preincubation, read-out: IC50 rFAAH. As for the experimental part:
Procedure was followed as described for hMAGL, except that arachidonoyl-methyl coumarin amide (AAMCA) was used as fluorigenic substrate. […] For the screening assay, 3 concentrations (1 μM, 10 μM, and 100 μM) of test compounds, 15 μg of ΔTM rFAAH and assay buffer were pre-incubated for 15 min at 25° C. […] The fluorescence reading at the 3 hour time point (linear enzyme kinetics) was used to calculate percent inhibition based on control assays without inhibitor present. All FAAH assays were performed in triplicate for each inhibitor concentration, and IC50 values determined using Prizm software (GraphPad Software, Inc.).

For the next experiment, the target named is T3, Human FAAH (MBPΔTMhFAAH) (Homo sapiens, UniProt O00519).
T3 construct: made in house; host or cells: E. coli (pMALcE4 vector)
T3 sequence (O00519 30-579 limits assumed): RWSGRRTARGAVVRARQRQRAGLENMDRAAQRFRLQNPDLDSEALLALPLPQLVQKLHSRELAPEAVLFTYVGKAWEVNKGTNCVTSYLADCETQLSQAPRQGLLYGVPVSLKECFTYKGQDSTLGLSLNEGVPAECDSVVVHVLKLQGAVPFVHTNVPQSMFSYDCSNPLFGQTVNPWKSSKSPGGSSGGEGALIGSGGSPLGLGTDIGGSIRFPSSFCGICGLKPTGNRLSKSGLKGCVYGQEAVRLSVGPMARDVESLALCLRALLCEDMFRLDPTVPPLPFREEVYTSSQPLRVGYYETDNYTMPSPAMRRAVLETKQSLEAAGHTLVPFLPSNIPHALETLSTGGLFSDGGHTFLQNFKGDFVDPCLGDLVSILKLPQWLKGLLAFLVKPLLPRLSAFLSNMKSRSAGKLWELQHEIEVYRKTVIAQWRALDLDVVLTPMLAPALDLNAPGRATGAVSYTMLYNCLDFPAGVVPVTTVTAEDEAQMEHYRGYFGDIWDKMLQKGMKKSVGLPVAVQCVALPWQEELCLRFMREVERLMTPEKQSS
The experiment can be described thus: Fluorescent assay protocol for hFAAH. As to conditions: human FAAH (MBP fusion, ΔTM), procedure as for rFAAH. As for the experimental part: Human FAAH without putative transmembrane domain following maltose binding protein was expressed in E. coli cells using pMALcE4 vector Alapafuja et al J. Med. Chem. (2012) 55: 10074-89.
Procedure was followed as described for hMAGL, except that arachidonoyl-methyl coumarin amide (AAMCA) was used as fluorigenic substrate. Compounds were diluted in 50:50 DMSO/assay buffer (50 mM HEPES, 1 mM EDTA, 0.1% BSA, pH 7.4) so as to have a final DMSO concentration below 8% in each reaction. For the screening assay, 3 concentrations (1 μM, 10 μM, and 100 μM) of test compounds, 15 μg of ΔTM rFAAH and assay buffer were pre-incubated for 15 min at 25° C. AAMCA (20 μM, 2×Km) was added prior to incubation at 25° C. and kinetic fluorescence reading every 20 minutes (λex=360/λem=460) for 4 hours on a BioTek Synergy HT Microplate Reader (BioTek Instruments, Winooski, Vt.). The fluorescence reading at the 3 hour time point (linear enzyme kinetics) was used to calculate percent inhibition based on control assays without inhibitor present. All FAAH assays were performed in triplicate for each inhibitor concentration, and IC50 values determined using Prizm software (GraphPad Software, Inc.).
Procedure was followed as described for rFAAH.

Another experiment addresses T4, Rat MAGL (rMAGL) (Rattus norvegicus, UniProt Q8R431).
T4 construct: made in house; host or cells: E. coli
T4 sequence (Q8R431 1-303): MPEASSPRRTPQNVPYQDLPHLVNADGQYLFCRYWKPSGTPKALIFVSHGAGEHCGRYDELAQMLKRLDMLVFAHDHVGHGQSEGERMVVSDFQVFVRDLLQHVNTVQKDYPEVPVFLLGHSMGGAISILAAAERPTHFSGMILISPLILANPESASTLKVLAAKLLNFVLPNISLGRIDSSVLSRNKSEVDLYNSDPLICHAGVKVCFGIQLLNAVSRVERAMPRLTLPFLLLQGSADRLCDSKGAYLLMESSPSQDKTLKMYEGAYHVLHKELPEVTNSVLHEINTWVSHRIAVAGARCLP
The experiment can be described thus: Fluorescent assay protocol for rMAGL. The conditions noted are these: recombinant rat MAGL, procedure as for hMAGL; read-out: IC50 rMAGL. As for the experimental part: as §1
Procedure was followed as described for hMAGL.

With `NC(=O)c1cccc(-c2cccc(NC(=O)N3CCN(c4ccccc4)CC3)c2)c1` [Example 11, N-(3′-carbamoyl-[1,1′-biphenyl]-3-yl)-4-phenylpiperazine-1-carboxamide], the 50% inhibitory concentration (IC50) at Human MAGL (hMAGL) is above 1000 nM; on ΔTM rat FAAH, 10 to 100 nM; on Human FAAH (MBPΔTMhFAAH), 10 to 100 nM; at Rat MAGL (rMAGL) it was above 1000 nM.

For the compound `NC(=O)c1cccc(-c2cccc(NC(=O)N3CCN(Cc4ccc5ccccc5n4)CC3)c2)c1` [Example 12, N-(3′-carbamoyl-[1,1′-biphenyl]-3-yl)-4-(quinolin-2-ylmethyl)piperazine-1-carboxamide], the IC50 is above 1000 nM at Human MAGL (hMAGL), 10 to 100 nM on ΔTM rat FAAH, 10 to 100 nM at Human FAAH (MBPΔTMhFAAH) and above 1000 nM on Rat MAGL (rMAGL).

In the case of `N#Cc1cccc(-c2cccc(NC(=O)N3CCN(Cc4ccc5ccccc5n4)CC3)c2)c1` [Example 13, N-(3′-cyano-[1,1′-biphenyl]-3-yl)-4-(quinolin-2-ylmethyl)piperazine-1-carboxamide], the IC50 at Human MAGL (hMAGL) is above 1000 nM; at ΔTM rat FAAH it was 10 to 100 nM; on Human FAAH (MBPΔTMhFAAH), 10 to 100 nM; on Rat MAGL (rMAGL) it was above 1000 nM.

With `O=C(Nc1cccc(Oc2ccccc2)c1)N1CCN(Cc2ccc3ccccc3n2)CC1` [Example 14, N-(3-phenoxyphenyl)-4-(quinolin-2-ylmethyl)piperazine-1-carboxamide], the IC50 on Human MAGL (hMAGL), on ΔTM rat FAAH, on Human FAAH (MBPΔTMhFAAH) and at Rat MAGL (rMAGL) was above 1000 nM each time.

Regarding `N#Cc1cccc(-c2cccc(NC(=O)N3CCC(c4ccccc4)CC3)c2)c1` [Example 15, N-(3′-cyano-[1,1′-biphenyl]-3-yl)-4-phenylpiperidine-1-carboxamide], the IC50 at Human MAGL (hMAGL), on ΔTM rat FAAH, on Human FAAH (MBPΔTMhFAAH) and on Rat MAGL (rMAGL) was above 1000 nM in each case.

In the case of `N#Cc1cccc(-c2cncc(NC(=O)N3CCC(c4ccccc4)CC3)c2)c1` [Example 16, N-(5-(3-cyanophenyl)pyridin-3-yl)-4-phenylpiperidine-1-carboxamide], the IC50 on Human MAGL (hMAGL), on ΔTM rat FAAH, at Human FAAH (MBPΔTMhFAAH) and on Rat MAGL (rMAGL) was above 1000 nM throughout.

Regarding `N#Cc1cccc(-c2cccc(NC(=O)N3CCN(Cc4cccc(-c5ccccc5)c4)CC3)c2)c1` [Example 17, 4-([1,1′-biphenyl]-3-ylmethyl)-N-(3′-cyano-[1,1′-biphenyl]-3-yl)piperazine-1-carboxamide], the IC50 at Human MAGL (hMAGL) was above 1000 nM; on ΔTM rat FAAH it was 10 to 100 nM; at Human FAAH (MBPΔTMhFAAH), 10 to 100 nM; on Rat MAGL (rMAGL), above 1000 nM.

Take `NC(=O)c1cccc(-c2cccc(NC(=O)N3CCN(Cc4cccc(Oc5ccccc5)c4)CC3)c2)c1` [Example 18, N-(3′-carbamoyl-[1,1′-biphenyl]-3-yl)-4-(3-phenoxybenzyl)piperazine-1-carboxamide]: the IC50 was above 1000 nM on Human MAGL (hMAGL), 10 to 100 nM on ΔTM rat FAAH, 110 to 1000 nM on Human FAAH (MBPΔTMhFAAH) and above 1000 nM on Rat MAGL (rMAGL).

Consider `C[C@H]1CN(C(=O)Nc2cccc(-c3cccc(C#N)c3)c2)CCN1Cc1ccc2ccccc2n1` [Example 19, (S)—N-(3′-cyano-[1,1′-biphenyl]-3-yl)-3-methyl-4-(quinolin-2-ylmethyl)piperazine-1-carboxamide], for which the IC50 was above 1000 nM at Human MAGL (hMAGL), 110 to 1000 nM at ΔTM rat FAAH, 110 to 1000 nM on Human FAAH (MBPΔTMhFAAH) and above 1000 nM on Rat MAGL (rMAGL).

Turning to `N#Cc1cccc(-c2cccc(NC(=O)N3CCC4(CC3)CC(=O)c3ccccc3O4)c2)c1` [Example 20, N-(3′-cyano-[1,1′-biphenyl]-3-yl)-4-oxospiro[chromane-2,4′-piperidine]-1′-carboxamide], the concentration for half-maximal inhibition (IC50) was above 1000 nM at Human MAGL (hMAGL), 110 to 1000 nM at ΔTM rat FAAH, 110 to 1000 nM on Human FAAH (MBPΔTMhFAAH) and above 1000 nM on Rat MAGL (rMAGL).
